Laboratory results: patent US20060069132A1, “Azolecarboxamide herbicides” (priority 2004, published 2006)

Experiments:
wheat = assay: Test B postemergence herbicide test; format: in vivo, Triticum aestivum; parameters: key to Wheat plant response rating: 0 = no effect, 100 = complete control; conditions: postemergence, 500 g ai/ha; visual rating, scale 0 (no effect) to 100 (complete control)
Procedure, shortened: (§1)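 After treating 2-leaf paddy plants or 2–18 cm postemergence plants (1 to 4 leaves) with formulated chemical, researchers kept them in a greenhouse for 13–15 days. Effects were judged visually versus controls: 0 indicates none, 100 total control.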

ducksalad = assay: Test B flooded paddy test; format: in vivo, Heteranthera limosa; conditions: 1000 g ai/ha, visual rating, scale 0 to 100 (0 no effect, 100 complete control), 13 to 15 days
Procedure, shortened: (§2)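 Treated at 2-leaf (paddy) or 1–4-leaf, 2–18 cm (postemergence); greenhouse 13–15 d; visual score vs control, 0 none to 100 complete control; dash = not tested.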

large crabgrass = assay: Test B pre-/postemergence herbicide test; format: in vivo, Digitaria sanguinalis; conditions: for Plant response rating, Crabgrass, Large: preemergence; for Crabgrass, Large plant response rating: postemergence, visual rating, scale 0 (no effect) to 100 (complete control)
Procedure, shortened: (§3)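 Greenhouse pot assay with simultaneous preemergence (treated seed) and postemergence (2–18 cm seedlings) applications of surfactant-containing, non-phytotoxic solvent formulations. Response scored visually 13–15 days later on a 0–100 scale, 100 meaning complete control.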

Surinam grass = assay: Test B pre-/postemergence herbicide test; format: in vivo, Urochloa decumbens; conditions: for Plant response rating, Surinam Grass: preemergence; for Surinam Grass plant response rating: postemergence, visual rating, scale 0 (no effect) to 100 (complete control)
Procedure, shortened: as §3

blackgrass = assay: Test B postemergence herbicide test; format: in vivo, Alopecurus myosuroides; conditions: postemergence, visual rating, scale 0 (no effect) to 100 (complete control)
Procedure, shortened: as §2

rice = assay: Test B flooded paddy test; format: in vivo, Oryza sativa; conditions: 1000 g ai/ha, visual rating, scale 0 to 100 (0 no effect, 100 complete control), 13 to 15 days
Procedure, shortened: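 Greenhouse test; postemergence application to plants at 1–4 leaves (2–18 cm); paddy species at 2 leaves; evaluated visually vs controls at 13–15 days; scale 0–100 (100 = complete control).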

morningglory = assay: Test B pre-/postemergence herbicide test; format: in vivo, Ipomoea coccinea; conditions: for Plant response rating, Morningglory: preemergence; for Morningglory plant response rating: postemergence, visual rating, scale 0 (no effect) to 100 (complete control)
Procedure, shortened: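 Herbicidal effect was judged by eye on a 0–100 scale after plants stood 13 to 15 days in the greenhouse following pre- or postemergence treatment with surfactant-containing formulations.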

[1] = test system: small flower umbrella sedge; assay: Test B flooded paddy test; format: in vivo, Cyperus difformis; conditions: 1000 g ai/ha, visual rating, scale 0 to 100 (0 no effect, 100 complete control), 13 to 15 days
Procedure, shortened: as §2

wild oat = assay: Test B postemergence herbicide test; format: in vivo, Avena fatua; conditions: postemergence, visual rating, scale 0 (no effect) to 100 (complete control)
Procedure, shortened: as §1

corn = assay: Test B pre-/postemergence herbicide test; format: in vivo, Zea mays; conditions: for Plant response rating, Corn: preemergence; for Corn plant response rating: postemergence, visual rating, scale 0 (no effect) to 100 (complete control)
Procedure, shortened: as §3

lambsquarters = assay: Test B pre-/postemergence herbicide test; format: in vivo, Chenopodium album; conditions: for Plant response rating, Lambsquarters: preemergence; for Lambsquarters plant response rating: postemergence, visual rating, scale 0 (no effect) to 100 (complete control)
Procedure, shortened: as §3

giant foxtail = assay: Test B pre-/postemergence herbicide test; format: in vivo, Setaria faberi; conditions: for Plant response rating, Foxtail, Giant: preemergence; for Foxtail, Giant plant response rating: postemergence, visual rating, scale 0 (no effect) to 100 (complete control)
Procedure, shortened: as §3

barnyardgrass = assay: Test B flooded paddy test; format: in vivo, Echinochloa crus-galli; conditions: 1000 g ai/ha, visual rating, scale 0 to 100 (0 no effect, 100 complete control), 13 to 15 days
Procedure, shortened: as §2

velvetleaf = assay: Test B pre-/postemergence herbicide test; format: in vivo, Abutilon theophrasti; conditions: for Plant response rating, Velvetleaf: preemergence; for Velvetleaf plant response rating: postemergence, visual rating, scale 0 (no effect) to 100 (complete control)
Procedure, shortened: as §3

pigweed = assay: Test B pre-/postemergence herbicide test; format: in vivo, Amaranthus retroflexus; conditions: for Plant response rating, Pigweed: preemergence; for Pigweed plant response rating: postemergence, visual rating, scale 0 (no effect) to 100 (complete control)
Procedure, shortened: as §3

[2] = 500 g ai/ha, visual rating 0-100, 0 no effect, 100 complete control
[3] = 125 g ai/ha, 0 to 100 scale, 0 is no effect, 100 is complete control

CCNC(=O)c1cccc(NC(=O)c2cc(C(C)(C)C)nn2CC)n1 [Compound 144]
70: Rice plant response rating (rice)
100: Plant response rating, Crabgrass, Large (large crabgrass; [2]) | Crabgrass, Large plant response rating (large crabgrass; 500 g ai/ha) | Plant response rating, Surinam Grass (Surinam grass; [2]) | Plant response rating, Morningglory (morningglory; [2]) | Plant response rating, Morningglory (morningglory; [3]) | Plant response rating, Lambsquarters (lambsquarters; [2]) | Plant response rating, Lambsquarters (lambsquarters; [3]) | Plant response rating, Foxtail, Giant (giant foxtail; [2]) | Plant response rating, Foxtail, Giant (giant foxtail; [3]) | Plant response rating, Velvetleaf (velvetleaf; [2]) | Velvetleaf plant response rating (velvetleaf; 500 g ai/ha) | Plant response rating, Velvetleaf (velvetleaf; [3]) | Plant response rating, Pigweed (pigweed; [2]) | Pigweed plant response rating (pigweed; 125 g ai/ha) | Pigweed plant response rating (pigweed; 500 g ai/ha) | Plant response rating, Pigweed (pigweed; [3])
50: Morningglory plant response rating (morningglory; 125 g ai/ha) | Oat, Wild plant response rating (wild oat; 500 g ai/ha)
80: Plant response rating, Crabgrass, Large (large crabgrass; [3]) | Morningglory plant response rating (morningglory; 500 g ai/ha) | Barnyardgrass plant response rating (barnyardgrass) | Velvetleaf plant response rating (velvetleaf; 125 g ai/ha)
60: Surinam Grass plant response rating (Surinam grass; 125 g ai/ha) | Plant response rating, Surinam Grass (Surinam grass; [3]) | Blackgrass plant response rating (blackgrass; 500 g ai/ha)
20: Blackgrass plant response rating (blackgrass; 125 g ai/ha) | Oat, Wild plant response rating (wild oat; 125 g ai/ha) | Corn plant response rating (corn; 125 g ai/ha)
40: Foxtail, Giant plant response rating (giant foxtail; 125 g ai/ha)
10: Plant response rating, Corn (corn; [2]) | Plant response rating, Corn (corn; [3])
90: Ducksalad plant response rating (ducksalad) | Surinam Grass plant response rating (Surinam grass; 500 g ai/ha) | Sedge, Umbrella plant response rating [1] | Lambsquarters plant response rating (lambsquarters; 125 g ai/ha) | Lambsquarters plant response rating (lambsquarters; 500 g ai/ha) | Foxtail, Giant plant response rating (giant foxtail; 500 g ai/ha)
30: Wheat plant response rating (wheat) | Crabgrass, Large plant response rating (large crabgrass; 125 g ai/ha) | Corn plant response rating (corn; 500 g ai/ha)

C#CCNC(=O)c1cccc(NC(=O)c2cc(C(C)(C)C)nn2CC)n1 [Compound 147]
0: Morningglory plant response rating (morningglory; 125 g ai/ha) | Plant response rating, Morningglory (morningglory; [3]) | Oat, Wild plant response rating (wild oat; 125 g ai/ha)
100: Plant response rating, Crabgrass, Large (large crabgrass; [2]) | Plant response rating, Lambsquarters (lambsquarters; [2]) | Plant response rating, Foxtail, Giant (giant foxtail; [2]) | Plant response rating, Pigweed (pigweed; [2]) | Plant response rating, Pigweed (pigweed; [3])
60: Barnyardgrass plant response rating (barnyardgrass) | Velvetleaf plant response rating (velvetleaf; 125 g ai/ha) | Velvetleaf plant response rating (velvetleaf; 500 g ai/ha)
30: Surinam Grass plant response rating (Surinam grass; 500 g ai/ha) | Plant response rating, Morningglory (morningglory; [2]) | Morningglory plant response rating (morningglory; 500 g ai/ha) | Oat, Wild plant response rating (wild oat; 500 g ai/ha) | Corn plant response rating (corn; 500 g ai/ha) | Foxtail, Giant plant response rating (giant foxtail; 125 g ai/ha) | Plant response rating, Velvetleaf (velvetleaf; [3])
50: Rice plant response rating (rice)
20: Wheat plant response rating (wheat) | Crabgrass, Large plant response rating (large crabgrass; 125 g ai/ha) | Surinam Grass plant response rating (Surinam grass; 125 g ai/ha) | Plant response rating, Surinam Grass (Surinam grass; [3]) | Blackgrass plant response rating (blackgrass; 500 g ai/ha)
10: Blackgrass plant response rating (blackgrass; 125 g ai/ha) | Plant response rating, Corn (corn; [2]) | Corn plant response rating (corn; 125 g ai/ha) | Plant response rating, Corn (corn; [3])
90: Plant response rating, Crabgrass, Large (large crabgrass; [3]) | Sedge, Umbrella plant response rating [1] | Lambsquarters plant response rating (lambsquarters; 500 g ai/ha) | Plant response rating, Lambsquarters (lambsquarters; [3]) | Pigweed plant response rating (pigweed; 500 g ai/ha)
40: Foxtail, Giant plant response rating (giant foxtail; 500 g ai/ha)
80: Ducksalad plant response rating (ducksalad) | Plant response rating, Surinam Grass (Surinam grass; [2]) | Lambsquarters plant response rating (lambsquarters; 125 g ai/ha) | Plant response rating, Velvetleaf (velvetleaf; [2]) | Pigweed plant response rating (pigweed; 125 g ai/ha)
70: Crabgrass, Large plant response rating (large crabgrass; 500 g ai/ha) | Plant response rating, Foxtail, Giant (giant foxtail; [3])
